The values below come from ChEMBL document CHEMBL1144154, “7-[1H-Indol-2-yl]-2,3-dihydro-isoindol-1-ones as dual Aurora-A/VEGF-R2 kinase inhibitors: design, synthesis, and biological activity” (Bioorg Med Chem Lett, 2008).

Calls of active or inactive are those of the source.

In data set [1] the target is T1, Vascular endothelial growth factor receptor 2 (Homo sapiens, UniProt P35968). Nature of the data set: Inhibition of VEGFR2.
For another data set, the target named is T2, Aurora kinase A (Homo sapiens, UniProt O14965).
T2 sequence (O14965 whole entry): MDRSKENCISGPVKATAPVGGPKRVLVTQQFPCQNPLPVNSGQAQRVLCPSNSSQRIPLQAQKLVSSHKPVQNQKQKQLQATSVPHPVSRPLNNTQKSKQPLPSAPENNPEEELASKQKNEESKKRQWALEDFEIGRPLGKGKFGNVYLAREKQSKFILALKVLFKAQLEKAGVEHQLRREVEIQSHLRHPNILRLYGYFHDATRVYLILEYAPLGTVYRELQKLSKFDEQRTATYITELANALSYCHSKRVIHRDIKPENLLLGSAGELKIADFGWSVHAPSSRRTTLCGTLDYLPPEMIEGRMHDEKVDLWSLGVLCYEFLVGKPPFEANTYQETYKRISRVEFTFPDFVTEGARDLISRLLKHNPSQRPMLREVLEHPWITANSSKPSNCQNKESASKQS
Briefly: Inhibition of Aurora A.

The target in data set [2] is T3, Cyclin-dependent kinase 1 (Homo sapiens, UniProt P06493). Nature of the data set: Inhibition of CDK1.
Target sequence in this assay (P06493 whole entry): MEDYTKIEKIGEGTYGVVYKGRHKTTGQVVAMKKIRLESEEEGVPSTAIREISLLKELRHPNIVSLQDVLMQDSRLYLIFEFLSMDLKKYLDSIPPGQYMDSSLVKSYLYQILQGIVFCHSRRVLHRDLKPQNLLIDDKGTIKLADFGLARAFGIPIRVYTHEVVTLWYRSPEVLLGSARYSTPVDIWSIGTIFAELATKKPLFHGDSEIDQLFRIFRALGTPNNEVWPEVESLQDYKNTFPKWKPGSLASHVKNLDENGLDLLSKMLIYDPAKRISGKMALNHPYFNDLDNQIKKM
The target in data set [3] is T3, Cyclin-dependent kinase 1. Briefly: Inhibition of CDK1 at 100 uM.
Target sequence in this assay (P06493 whole entry, looked up): as the sequence (P06493 whole entry) above
Data set [4] deals with T4, Aurora kinase A (Homo sapiens) (UniProt O14965).
T4 sequence (whole entry): T2 sequence (O14965 whole entry)
Briefly: Inhibition of Aurora A at 100 uM.

Data set [5] has as its target T1, Vascular endothelial growth factor receptor 2. Nature of the data set: Inhibition of VEGFR2 at 0.1 uM.
Data set [6] has the same target. Briefly: Inhibition of VEGFR2 at 100 uM.
The subject of another data set is A-375. Nature of the data set: Antitumor activity in human A375 cells […] nude mouse assessed as inhibition of tumor growth at 100 mg/kg, ip relative to control. It counts as functional. On the set-up: scale not given: the % may be the effect or the level left. Particulars: route intraperitoneal.
The nature of data set [7]: Oral bioavailability in rat at 10 mg/kg. In kind it is ADME, organism-based. The following applies: in vivo.
Data set [8] can be described thus: Cmax in rat at 10 mg/kg, po. It counts as ADME, organism-based. Particulars: in vivo. Details: dose 10 mg/kg, route oral.
Data set [9] can be described thus: Half life in rat at 10 mg/kg, po. Particulars: in vivo. On the set-up: dose 10 mg/kg, route oral. It counts as ADME, organism-based.
Data set [10] in a line: Drug concentration in nude mouse plasma at 10 mg/kg after 0.5 hrs. In kind it is ADME, organism-based. Details: dose 10 mg/kg.
A short description of data set [11]: Drug concentration in nude mouse plasma at 10 mg/kg after 1 hr. Details: dose 10 mg/kg. In kind it is ADME, organism-based.
The nature of data set [12]: Drug concentration in nude mouse plasma at 10 mg/kg after 2 hrs. It counts as ADME, organism-based. On the set-up: dose 10 mg/kg.
Data set [13] is described as follows: Drug concentration in nude mouse plasma at 10 mg/kg after 4 hrs. It counts as ADME, organism-based. Details: dose 10 mg/kg.
Another data set concerns HeLa. Briefly: Induction of polyploidy in human HeLa cells assessed as increase in cells with >4N DNA content at 2.5 uM after 72 hrs by FACS analysis.

T1 sequence (P35968 whole entry): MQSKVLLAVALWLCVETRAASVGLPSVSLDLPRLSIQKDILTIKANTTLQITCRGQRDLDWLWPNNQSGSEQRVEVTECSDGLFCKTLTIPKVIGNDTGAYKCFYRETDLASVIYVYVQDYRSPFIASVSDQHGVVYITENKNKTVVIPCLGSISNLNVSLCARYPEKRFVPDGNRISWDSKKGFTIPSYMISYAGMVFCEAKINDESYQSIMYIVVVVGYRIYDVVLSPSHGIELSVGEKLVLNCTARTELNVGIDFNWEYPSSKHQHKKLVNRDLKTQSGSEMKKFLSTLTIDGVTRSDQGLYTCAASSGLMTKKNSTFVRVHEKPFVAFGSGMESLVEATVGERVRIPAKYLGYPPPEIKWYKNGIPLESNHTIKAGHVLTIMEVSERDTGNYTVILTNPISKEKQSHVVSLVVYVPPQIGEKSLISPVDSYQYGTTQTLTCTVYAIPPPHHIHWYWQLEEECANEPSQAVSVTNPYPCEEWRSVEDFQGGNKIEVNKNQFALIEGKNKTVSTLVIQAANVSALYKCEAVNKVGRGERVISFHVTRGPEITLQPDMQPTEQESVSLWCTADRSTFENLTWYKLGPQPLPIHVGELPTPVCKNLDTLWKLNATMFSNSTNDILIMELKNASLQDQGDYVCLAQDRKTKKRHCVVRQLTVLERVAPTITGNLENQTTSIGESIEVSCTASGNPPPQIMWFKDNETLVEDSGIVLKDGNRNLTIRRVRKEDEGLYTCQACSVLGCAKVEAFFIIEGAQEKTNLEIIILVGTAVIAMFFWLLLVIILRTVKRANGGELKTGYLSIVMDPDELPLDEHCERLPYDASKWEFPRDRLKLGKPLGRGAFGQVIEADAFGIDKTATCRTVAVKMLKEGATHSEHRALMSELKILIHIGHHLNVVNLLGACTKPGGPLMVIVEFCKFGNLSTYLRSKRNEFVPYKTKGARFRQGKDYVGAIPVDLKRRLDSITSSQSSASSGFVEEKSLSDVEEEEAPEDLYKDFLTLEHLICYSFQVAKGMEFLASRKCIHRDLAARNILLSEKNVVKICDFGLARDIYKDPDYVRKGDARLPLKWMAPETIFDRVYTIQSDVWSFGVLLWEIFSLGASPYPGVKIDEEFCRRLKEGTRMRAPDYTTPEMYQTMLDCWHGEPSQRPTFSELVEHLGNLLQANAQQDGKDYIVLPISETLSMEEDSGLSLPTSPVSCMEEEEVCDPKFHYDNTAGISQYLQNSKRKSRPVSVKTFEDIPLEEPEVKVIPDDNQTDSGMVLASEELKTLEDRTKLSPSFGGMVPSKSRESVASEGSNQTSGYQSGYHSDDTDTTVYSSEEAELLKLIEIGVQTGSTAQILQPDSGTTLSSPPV

Broadly, the IC50 is the concentration at which inhibition is half-maximal. On to `O=C1NCc2cccc(-c3cc4cc(OCCCO)ccc4[nH]3)c21`, for which the values for the IC50 (in data set [1]; on Aurora kinase A; in data set [2]) were 30 nM, 100 nM and greater than 100000 nM, respectively.
For `O=C1NCc2cccc(-c3cc4ccccc4[nH]3)c21`, in that order: 144 nM, 100 nM and greater than 100000 nM.
For `O=C1NCc2cccc(-c3cc4cc(OCc5ccccc5)ccc4[nH]3)c21` the same measures were 11300 nM, 21200 nM and greater than 100000 nM.
For orientation: inhibition means the drop in the measured response relative to a control, in per cent. Regarding `O=C1NCc2cccc(-c3ccc[nH]3)c21`, the results for the IC50 (in data set [1]; against Aurora kinase A) were 1100 nM and 338 nM, respectively. The molecule also had an inhibition in [3] of 63%.
Take `O=C(O)c1cccc2c1C(=O)NC2`: the IC50 (in [1]; against Aurora kinase A) was greater than 100000 nM in each case.
`O=C1NCc2cccc(-c3cc4cc(OCCN5CCOCC5)ccc4[nH]3)c21`: the results for the IC50 (in data set [1]; on Aurora kinase A; in [2]) were 74 nM, 135 nM and greater than 100000 nM, respectively.
For `CN1Cc2cccc(-c3cccn3C(=O)OC(C)(C)C)c2C1=O` the same measures were greater than 100000 nM, greater than 100000 nM and greater than 100000 nM.
For `O=C1NCc2cccc(-c3cc4cc(OCCCN5CCCCC5)ccc4[nH]3)c21`, in that order: 65 nM, 179 nM and greater than 100000 nM.
With `COc1ccc2[nH]c(-c3cccc4c3C(=O)NC4=O)cc2c1`, the inhibition in data set [4] came out at 30%; in data set [5], 35%.
Turning to `COC(=O)c1cccc2c1C(=O)NC2`, the IC50 (in [1]; at Aurora kinase A) was greater than 100000 nM each time.
As to `O=C1NCc2cccc(-c3c[nH]c4ccccc34)c21`, the values for the inhibition in [6] and in data set [4] were 50% and 60%, respectively.
Take `COc1ccc(NC(=O)c2cccc3c2C(=O)NC3)cc1`: the half-inhibitory concentration (IC50) in [1] was 5940 nM. The molecule further returned an inhibition in data set [4] of 45%.
Turning to `O=C1NCc2cccc(-c3cc4cc(O)ccc4[nH]3)c21`, the IC50 was 119 nM in data set [1], 90 nM at Aurora kinase A and 13300 nM in data set [2].
A word on the bioavailability: it is dose-corrected exposure relative to a reference, in per cent. The Cmax is the maximum level reached in the sampled fluid or tissue. A word on the half-life: it is the time needed for the level to fall by half in the phase considered. Regarding `O=C1NCc2cccc(-c3cc4cc(OCCN5CCCCC5)ccc4[nH]3)c21`, the IC50 was 56 nM in data set [1], 200 nM against Aurora kinase A and greater than 100000 nM in [2]. For the same molecule, the Activity with A-375 worked out at 46%. This molecule had a bioavailability in data set [7] of 20%. The Cmax in data set [8] was 391 ng/mL. In data set [9], this molecule showed a half-life of 54 min. This molecule also yielded a concentration at 0.5 h in [10] of 154 ng/mL. Also, the concentration at 1 h in data set [11] is 160 ng/mL. Moreover, in [12], the concentration at 2 h amounted to 41 ng/mL. The concentration at 4 h in [13] is 12 ng/mL. The result in the data set with HeLa was Active.
With `CCN1CCN(CCCOc2ccc3[nH]c(-c4cccc5c4C(=O)NC5)cc3c2)CC1`, the IC50 in [1] was 14 nM; on Aurora kinase A it was 44 nM; in [2], greater than 100000 nM.
For `O=C1NCc2cccc(-c3cc4cc(OCCCN5CCC(O)CC5)ccc4[nH]3)c21`, in that order: 18 nM, 61 nM and greater than 100000 nM.
As to `NC(=O)c1cccc2c1C(=O)NC2`, the IC50 in data set [1] was greater than 100000 nM; on Aurora kinase A it was 14300 nM.
Turning to `CC(C)(C)OC(=O)n1cccc1-c1cccc2c1C(=O)NC2`, the inhibition in [6] was 46%; in [4] it was 25%; in data set [3] it was less than 10%.
For `CN1Cc2cccc(-c3ccc[nH]3)c2C1=O` the same measures were less than 10%, 37% and 24%.
Regarding `COc1ccc2[nH]c(-c3cccc4c3C(=O)NC4)nc2c1`, the values for the IC50 (in [1]; at Aurora kinase A) were 142 nM and 205 nM, respectively.
